Where a name gives a salt, the structure may show the parent alone. Read-outs that look alike come from different tables or passages of the source.
Key:
[1] = molecular target: T1, human TLR7 (Homo sapiens, UniProt Q9NYK1); assay: HEK-Blue hTLR7 reporter cell assay (SEAP, NF-kB/AP-1) for stimulation of human TLR7; assay type: cell-based; details: HEK-Blue hTLR7 cells; for EC50: read-out: TLR7_EC50; for activation at 20 µM: 24 h, at 20000 nM
T1 construct: host or cells: HEK293 (HEK-Blue hTLR7)
T1 sequence (Q9NYK1 27-1049): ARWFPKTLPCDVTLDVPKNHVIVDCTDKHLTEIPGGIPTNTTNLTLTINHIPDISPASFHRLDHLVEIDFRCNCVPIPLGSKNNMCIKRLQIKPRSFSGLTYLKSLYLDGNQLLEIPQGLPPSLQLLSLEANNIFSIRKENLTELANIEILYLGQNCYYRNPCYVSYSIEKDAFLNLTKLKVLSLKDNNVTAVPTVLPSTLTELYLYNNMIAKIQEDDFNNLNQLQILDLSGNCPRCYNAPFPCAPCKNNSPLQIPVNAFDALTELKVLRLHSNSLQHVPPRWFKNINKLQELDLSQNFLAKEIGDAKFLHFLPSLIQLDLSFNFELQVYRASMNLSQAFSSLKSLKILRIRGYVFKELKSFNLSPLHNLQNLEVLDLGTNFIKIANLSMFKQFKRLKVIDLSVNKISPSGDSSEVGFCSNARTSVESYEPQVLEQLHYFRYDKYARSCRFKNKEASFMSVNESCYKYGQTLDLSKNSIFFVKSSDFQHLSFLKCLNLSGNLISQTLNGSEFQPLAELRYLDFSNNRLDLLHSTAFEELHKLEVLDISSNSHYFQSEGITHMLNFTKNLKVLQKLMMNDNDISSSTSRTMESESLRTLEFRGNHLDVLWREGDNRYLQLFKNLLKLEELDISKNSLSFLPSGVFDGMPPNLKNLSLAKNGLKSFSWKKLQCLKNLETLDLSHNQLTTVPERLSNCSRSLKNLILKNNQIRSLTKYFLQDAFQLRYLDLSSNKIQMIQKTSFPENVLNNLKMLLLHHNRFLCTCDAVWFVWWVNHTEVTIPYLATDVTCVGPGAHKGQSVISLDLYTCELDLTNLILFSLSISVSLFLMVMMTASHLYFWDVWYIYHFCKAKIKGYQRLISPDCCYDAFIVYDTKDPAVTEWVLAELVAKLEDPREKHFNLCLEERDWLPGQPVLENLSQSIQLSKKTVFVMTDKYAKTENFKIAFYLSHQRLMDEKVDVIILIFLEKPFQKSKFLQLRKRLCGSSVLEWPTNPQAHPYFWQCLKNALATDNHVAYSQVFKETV
Method in brief: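 Activity expressed as EC50 for half-maximal SEAP induction. Compounds, serially diluted 3-fold from 20 to 0.01 μM, were incubated 24 h at 37 °C, 5% CO2 with HEK-Blue hTLR7 reporter cells (3.10E4/well, plated 18–24 h earlier); supernatant developed with QUANTI-Blue.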

[2] = molecular target: T2, human TLR8 (Homo sapiens, UniProt Q9NR97); assay: HEK-Blue hTLR8 reporter cell assay (SEAP, NF-kB/AP-1) for stimulation of human TLR8; assay type: cell-based; details: HEK-Blue hTLR8 cells; for activation at 20 µM: 24 h, at 20000 nM; for EC50: 24 h incubation, SEAP readout, read-out: TLR8_EC50
T2 construct: host or cells: HEK293 (HEK-Blue hTLR8)
T2 sequence (Q9NR97 27-1041): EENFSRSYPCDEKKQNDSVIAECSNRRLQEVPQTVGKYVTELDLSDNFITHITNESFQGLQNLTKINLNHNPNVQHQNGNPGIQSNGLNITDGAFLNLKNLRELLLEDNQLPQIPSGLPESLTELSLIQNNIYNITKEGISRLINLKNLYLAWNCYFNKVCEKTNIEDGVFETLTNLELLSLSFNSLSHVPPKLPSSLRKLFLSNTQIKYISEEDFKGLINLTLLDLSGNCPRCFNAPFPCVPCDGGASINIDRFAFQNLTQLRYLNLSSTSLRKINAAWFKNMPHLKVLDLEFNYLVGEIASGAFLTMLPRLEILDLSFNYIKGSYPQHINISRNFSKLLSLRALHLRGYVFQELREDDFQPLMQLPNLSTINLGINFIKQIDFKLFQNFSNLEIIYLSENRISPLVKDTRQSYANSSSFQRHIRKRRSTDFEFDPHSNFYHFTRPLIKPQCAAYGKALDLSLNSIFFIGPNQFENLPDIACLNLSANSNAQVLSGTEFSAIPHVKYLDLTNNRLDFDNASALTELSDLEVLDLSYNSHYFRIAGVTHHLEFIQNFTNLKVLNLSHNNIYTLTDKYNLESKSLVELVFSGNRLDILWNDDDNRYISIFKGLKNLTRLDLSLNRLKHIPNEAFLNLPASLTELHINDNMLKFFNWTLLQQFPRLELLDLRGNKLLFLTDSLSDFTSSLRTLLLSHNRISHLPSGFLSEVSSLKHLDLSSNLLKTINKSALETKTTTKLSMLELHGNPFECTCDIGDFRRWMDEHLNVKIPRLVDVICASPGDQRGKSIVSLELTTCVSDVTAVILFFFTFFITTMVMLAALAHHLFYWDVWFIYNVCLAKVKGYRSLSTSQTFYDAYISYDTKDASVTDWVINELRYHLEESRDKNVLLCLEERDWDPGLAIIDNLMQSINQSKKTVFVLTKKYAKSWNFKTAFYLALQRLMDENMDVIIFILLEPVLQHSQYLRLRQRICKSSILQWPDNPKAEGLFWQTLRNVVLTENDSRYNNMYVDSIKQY
Method in brief: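 Stimulation is quantified as secreted alkaline phosphatase in supernatant using QUANTI-Blue™ substrate. Reporter HEK293 line co-transfected with hTLR8 and SEAP under an IFN-β minimal promoter with five NF-κB/AP-1 sites; 3.10E4 cells/well, 18 to 24 h pre-culture at 37° C. before compounds.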

`CCCCc1nc2c(N)nnc(C3=CCNC3)c2n1Cc1ccc(CN)cc1` [Compound 144, 1-[[4-(aminomethyl)phenyl]methyl]-2-butyl-7-(2,5-dihydro-1H-pyrrol-3-yl)imidazo[4,5-d]pyridazin-4-amine] was tested, and the EC50 ([1]; μM) was > 20 µM and the activation at 20 µM [2] was 14.7%.

For `CCCCc1nc2c(N)nnc(C3CCNC3)c2n1Cc1ccc(CN)cc1` (stereo not drawn) [Compound 145, 1-[[4-(aminomethyl)phenyl]methyl]-2-butyl-7-pyrrolidin-3-yl-imidazo[4,5-d]pyridazin-4-amine], the activation at 20 µM [1] was 2.2% and the activation at 20 µM [2] was 11.7%.

In the case of `CCCCc1nc2c(N)nnc(OC(C)C)c2n1CCCCCCN` [Compound 146, 3-(6-aminohexyl)-2-butyl-4-isopropoxy-imidazo[4,5-d]pyridazin-7-amine dihydrochloride salt], the EC50 ([1]; 24 h incubation, SEAP readout) is reported as 0.191 µM and the EC50 [2] is reported as > 20 µM.

In the case of `CCCCc1nc2c(N)nnc(OC(C)C)c2n1CCCCCCNC1CCOCC1` [Compound 147, 2-butyl-4-isopropoxy-3-[6-(tetrahydropyran-4-ylamino)hexyl]imidazo[4,5-d]pyridazin-7-amine; dihydrochloride], the EC50 ([1]; 24 h incubation, SEAP readout) is reported as 0.0204 µM and the EC50 [2] is reported as 7.72 µM.

`CCCCc1nc2c(N)nnc(OC(C)C)c2n1CCCCCCN(C(C)=O)C1CCOCC1` [Compound 148, N-[6-(7-amino-2-butyl-4-isopropoxy-imidazo[4,5-d]pyridazin-3-yl)hexyl]-N-tetrahydropyran-4-yl-acetamide] was tested, and the EC50 ([1]; 24 h incubation, SEAP readout) was 0.0346 µM and the EC50 [2] was > 20 µM.

`CCCCc1nc2c(N)nnc(OC(C)C)c2n1CCCCN` [Compound 149, 3-(4-aminobutyl)-2-butyl-4-isopropoxy-imidazo[4,5-d]pyridazin-7-amine dihydrochloride salt] was tested, and the EC50 ([1]; 24 h incubation, SEAP readout) was 12.6 µM and the EC50 [2] was > 20 µM.

`CCCCc1nc2c(N)nnc(OC(C)C)c2n1CCCCNC1CCOCC1` [Compound 150, 2-butyl-4-isopropoxy-3-[4-(tetrahydropyran-4-ylamino)butyl]imidazo[4,5-d]pyridazin-7-amine hydrochloride salt] showed an EC50 ([1]; 24 h incubation, SEAP readout) of 2.21 µM and an EC50 [2] of 11.4 µM.

`CCCCc1nc2c(N)nnc(OC(C)C)c2n1CCCCN(C(C)=O)C1CCOCC1` [Compound 151, N-[4-(7-amino-2-butyl-4-isopropoxy-imidazo[4,5-d]pyridazin-3-yl)butyl]-N-tetrahydropyran-4-yl-acetamide] was tested, and the EC50 ([1]; 24 h incubation, SEAP readout) was 11.2 µM and the EC50 [2] was > 20 µM.

`CCCCc1nc2c(N)nnc(OC(C)C)c2n1CCCCNC1CS(=O)(=O)C1` [Compound 152, 2-butyl-3-[4-[(1,1-dioxothietan-3-yl)amino]butyl]-4-isopropoxy-imidazo[4,5-d]pyridazin-7-amine] was tested, and the EC50 ([1]; 24 h incubation, SEAP readout) was 4.39 µM and the EC50 [2] was > 20 µM.

With `CCCCc1nc2c(N)nnc(OC(C)C)c2n1CCCCN(C(C)=O)C1CS(=O)(=O)C1` [Compound 153, N-[4-(7-amino-2-butyl-4-isopropoxy-imidazo[4,5-d]pyridazin-3-yl)butyl]-N-(1,1-dioxothietan-3-yl)acetamide] the EC50 ([1]; 24 h incubation, SEAP readout) was 18.4 µM and the EC50 [2] was > 20 µM.

With `CCCCc1nc2c(N)nnc(OC(C)C)c2n1CCCCCCN(C(C)=O)C1CS(=O)(=O)C1` [Compound 155, N-[6-(7-amino-2-butyl-4-isopropoxy-imidazo[4,5-d]pyridazin-3-yl)hexyl]-N-(1,1-dioxothietan-3-yl)acetamide hydrochloride salt] the EC50 ([1]; 24 h incubation, SEAP readout) was 0.596 µM and the EC50 [2] was > 20 µM.

Work on `CCCCc1nc2c(N)nnc(OC(C)C)c2n1CC(C)(CO)CO` [Compound 156, 2-[(7-amino-2-butyl-4-isopropoxy-imidazo[4,5-d]pyridazin-3-yl)methyl]-2-methyl-propane-1,3-diol; hydrochloride] yielded an EC50 ([1]; 24 h incubation, SEAP readout) of 0.075 µM and an EC50 [2] of 0.005 µM.

`CCCCc1nc2c(N)nnc(OC(C)C)c2n1CC(CO)CO` [Compound 157, 2-[(7-amino-2-butyl-4-isopropoxy-imidazo[4,5-d]pyridazin-3-yl)methyl]propane-1,3-diol; hydrochloride] gave an EC50 ([1]; 24 h incubation, SEAP readout) of 0.531 µM and an EC50 [2] of 0.007 µM.

In the case of `CCCc1nc2c(N)nnc(OC(C)C)c2n1Cc1ccc(CN)cc1` [Compound 158, 1-(4-(aminomethyl)benzyl)-7-isopropoxy-2-propyl-1H-imidazo[4,5-d]pyridazin-4-amine], the EC50 ([1]; 24 h incubation, SEAP readout) is reported as 0.717 µM and the EC50 [2] is reported as > 20 µM.

In the case of `CCOCc1nc2c(N)nnc(OC(C)C)c2n1Cc1ccc(CN)cc1` [Compound 159, 1-(4-(aminomethyl)benzyl)-2-(ethoxymethyl)-7-isopropoxy-1H-imidazo[4,5-d]pyridazin-4-amine], the EC50 ([1]; 24 h incubation, SEAP readout) is reported as 0.247 µM and the EC50 [2] is reported as > 20 µM.

Work on `Cc1nc2c(N)nnc(OC(C)C)c2n1Cc1ccc(CN)cc1` [Compound 160, 1-(4-(aminomethyl)benzyl)-7-isopropoxy-2-methyl-1H-imidazo[4,5-d]pyridazin-4-amine] yielded an activation at 20 µM [1] of 35% and an activation at 20 µM [2] of 18%.

With `CCCSc1nc2c(N)nnc(OC(C)C)c2n1Cc1ccc(CN)cc1` [Compound 161, 3-[[4-(aminomethyl)phenyl]methyl]-4-isopropoxy-2-propylsulfanyl-imidazo[4,5-d]pyridazin-7-amine] the EC50 ([1]; 24 h incubation, SEAP readout) was 0.205 µM and the EC50 [2] was 0.398 µM.

In the case of `CCC[S+]([O-])c1nc2c(N)nnc(OC(C)C)c2n1Cc1ccc(CN)cc1` (stereo not drawn) [Compound 162, 3-[[4-(aminomethyl)phenyl]methyl]-4-isopropoxy-2-propylsulfinyl-imidazo[4,5-d]pyridazin-7-amine], the EC50 ([1]; 24 h incubation, SEAP readout) is reported as 6.7 µM and the EC50 [2] is reported as > 20 µM.

In the case of `CCCNc1nc2c(N)nnc(OC(C)C)c2n1Cc1ccc(CN)cc1` [Compound 163, 3-[[4-(aminomethyl)phenyl]methyl]-4-isopropoxy-N2-propyl-imidazo[4,5-d]pyridazine-2,7-diamine], the activation at 20 µM [1] is reported as 16.7% and the activation at 20 µM [2] is reported as 15.4%.

Work on `CCNCc1nc2c(N)nnc(OC(C)C)c2n1Cc1ccc(CN)cc1` [Compound 164, 3-[[4-(aminomethyl)phenyl]methyl]-2-(ethylaminomethyl)-4-isopropoxy-imidazo[4,5-d]pyridazin-7-amine] yielded an activation at 20 µM [1] of 4.8% and an activation at 20 µM [2] of 10.8%.

`CCCCc1nc2c(N)nnc(OC(C)C)c2n1CC1CCNCC1` [Compound 165, 2-butyl-7-isopropoxy-1-(piperidin-4-ylmethyl)-1H-imidazo[4,5-d]pyridazin-4-amine] was tested, and the EC50 ([1]; 24 h incubation, SEAP readout) was 1.57 µM and the EC50 [2] was > 20 µM.
